Experimental data taken from PubChem BioAssay (NCI).
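Method: 48-hour compound exposure of cells in 96-well plates, five concentrations, linear interpolation of endpoints. TGI is the concentration that stops growth completely.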

Tests used:
Test in all cases: growth of human tumour cells (NCI), 48 h
UACC-257 melanoma = system: UACC-257 melanoma
SK-OV-3 ovarian = system: SK-OV-3 ovarian
IGROV1 ovarian = system: IGROV1 ovarian
SR leukemia = system: SR leukemia
HCT-116 colon = system: HCT-116 colon
K-562 leukemia = system: K-562 leukemia
NCI-H23 lung = system: NCI-H23 lung
KM12 colon = system: KM12 colon
OVCAR-4 ovarian = system: OVCAR-4 ovarian
NCI-H522 lung = system: NCI-H522 lung
OVCAR-3 ovarian = system: OVCAR-3 ovarian
NCI-H226 lung = system: NCI-H226 lung
HT29 colon = system: HT29 colon
SNB-19 CNS = system: SNB-19 CNS
COLO 205 colon = system: COLO 205 colon
SK-MEL-2 melanoma = system: SK-MEL-2 melanoma
RPMI-8226 leukemia = system: RPMI-8226 leukemia
EKVX NSCLC = system: EKVX NSCLC
OVCAR-8 ovarian = system: OVCAR-8 ovarian
DMS 273 small cell lung = system: DMS 273 small cell lung
M19-MEL melanoma = system: M19-MEL melanoma
M14 melanoma = system: M14 melanoma
SF-295 CNS = system: SF-295 CNS
KM20L2 colon = system: KM20L2 colon
SNB-75 CNS = system: SNB-75 CNS
OVCAR-5 ovarian = system: OVCAR-5 ovarian
HOP-62 NSCLC = system: HOP-62 NSCLC
LXFL 529 NSCLC = system: LXFL 529 NSCLC
SF-268 CNS = system: SF-268 CNS
SNB-78 CNS = system: SNB-78 CNS
RXF-631 renal = system: RXF-631 renal
TK-10 renal = system: TK-10 renal
HL-60(TB) leukemia = system: HL-60(TB) leukemia
DMS 114 small cell lung = system: DMS 114 small cell lung
SW-620 colon = system: SW-620 colon
SK-MEL-28 melanoma = system: SK-MEL-28 melanoma
XF 498 CNS = system: XF 498 CNS
UO-31 renal = system: UO-31 renal
NCI-H460 lung = system: NCI-H460 lung
ACHN renal = system: ACHN renal
786-0 renal = system: 786-0 renal
A498 renal = system: A498 renal
U251 CNS = system: U251 CNS
SN12C renal = system: SN12C renal
DLD-1 colon = system: DLD-1 colon
LOX IMVI melanoma = system: LOX IMVI melanoma
HCT-15 colon = system: HCT-15 colon
SK-MEL-5 melanoma = system: SK-MEL-5 melanoma
HOP-18 NSCLC = system: HOP-18 NSCLC
CAKI-1 renal = system: CAKI-1 renal
UACC-62 melanoma = system: UACC-62 melanoma
SF-539 CNS = system: SF-539 CNS
A549 NSCLC = system: A549 NSCLC
MOLT-4 leukemia = system: MOLT-4 leukemia
HCC-2998 colon = system: HCC-2998 colon

Measured: TGI

CC(=O)n1cc(CC(C)O)c(=O)[nH]c1=O (stereo not drawn)
31.2 µM: SN12C renal
not listed: HCC-2998 colon
> 100 µM: all other assays above

O=C(O)/C(=C/c1ccccc1[N+](=O)[O-])c1cccs1
not listed: DMS 114 small cell lung
> 100 µM: all other assays above
